Patent US9856279B2 (AGIOS PHARMACEUTICALS, INC, priority 2011, dated 2018)
pIC50: −log10 of the molar value. Like-named read-outs stand apart in the source and are kept apart here.

Biological target: IDH1 R132H (Homo sapiens, UniProt O75874, R132H)
Assay: Assay for IDH1 R132H inhibitors (NADPH/aKG, resazurin detection)
Type: biochemical
Method in brief: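 Read-out is resorufin fluorescence (Ex544/Em590) 5 min after adding a 30 μM resazurin detection mix. Before that, mutant enzyme (0.2 μg/ml in its mix) ran 50 min at room temperature with compound, 8 uM NADPH and 2 mM aKG (mix levels) in Tris pH 7.5 with NaCl, MgCl2, BSA.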

[1] = enzyme assay of Example 12, read-out: IDH1R132H IC50
[2] = Table 3, enzyme assay, 50 minutes at room temperature, read-out: IC50 (IDH1 R132H Inhibition)

Chain of IDH1 R132H (O75874 whole entry R132H): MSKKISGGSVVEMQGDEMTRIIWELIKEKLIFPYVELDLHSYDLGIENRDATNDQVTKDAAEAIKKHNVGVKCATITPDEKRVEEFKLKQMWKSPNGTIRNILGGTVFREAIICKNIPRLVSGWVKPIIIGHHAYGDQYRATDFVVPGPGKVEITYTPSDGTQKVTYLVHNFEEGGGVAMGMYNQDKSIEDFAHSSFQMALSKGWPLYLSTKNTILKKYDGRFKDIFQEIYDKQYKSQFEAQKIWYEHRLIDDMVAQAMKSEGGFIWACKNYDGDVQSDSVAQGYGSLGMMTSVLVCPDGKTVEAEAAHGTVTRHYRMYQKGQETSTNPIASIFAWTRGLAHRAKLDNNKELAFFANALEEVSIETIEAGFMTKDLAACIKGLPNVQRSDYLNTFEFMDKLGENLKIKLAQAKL

pIC50 [1] | pIC50 [2] | SMILES
6.00 to 6.30 |  | COCCC(=O)N1CCN(c2nc(C3CC3)c(-c3cccc(N(C)C)c3)cc2C#N)C[C@H]1C [Compound 413, (R)-6-cyclopropyl-5-(3-(dimethylamino)phenyl)-2-(4-(3-methoxypropanoyl)-3-methylpiperazin-1-yl)nicotinonitrile]
 | 5.30 to 6.00 | COCCC(=O)N1CCN(c2nc(-c3ccccc3)c(-c3ccccc3)cc2C#N)C[C@H]1C [Compound 240, (R)-2-(4-(3-methoxypropanoyl)-3-methylpiperazin-1-yl)-5,6-diphenylnicotinonitrile]
 | 5.30 to 6.00 | COCCC(=O)N1CCN(c2nc(C3CC3)c(-c3cc4ccccc4s3)cc2C#N)C[C@H]1C [Compound 247, (R)-5-(benzo[b]thiophen-2-yl)-6-cyclopropyl-2-(4-(3-methoxypropanoyl)-3-methylpiperazin-1-yl)nicotinonitrile]
 | 5.30 to 6.00 | COCCC(=O)N1CCN(c2nc(C(C)C)c(-c3ccc(C)c(F)c3)cc2C#N)C[C@H]1C [Compound 221, (R)-5-(3-fluoro-4-methylphenyl)-6-isopropyl-2-(4-(3-methoxypropanoyl)-3-methylpiperazin-1-yl)nicotinonitrile]
> 6.30 |  | COCCC(=O)N1CCN(c2nc(C3CC3)c(-c3cccc(COC)c3)c(C)c2C#N)C[C@H]1C [Compound 322, (R)-6-cyclopropyl-5-(3-methoxymethyl-phenyl)-2-[4-(3-methoxy-propionyl)-3-methyl-piperazin-1-yl]-4-methyl-nicotinonitrile]
 | 5.30 to 6.00 | COCCC(=O)N1CCN(c2nc(C(C)C)c(-c3ccc(C)cc3)cc2C#N)C[C@H]1C [Compound 198, (R)-6-isopropyl-2-(4-(3-methoxypropanoyl)-3-methylpiperazin-1-yl)-5-p-tolylnicotinonitrile]
6.00 to 6.30 |  | CNC(=O)c1cccc(-c2c(C3CC3)nc(N3CCN(C(=O)CCOC)[C@H](C)C3)c(C#N)c2C)c1 [Compound 327, (R)-3-{5-cyano-2-cyclopropyl-6-[4-(3-methoxy-propionyl)-3-methyl-piperazin-1-yl]-4-methyl-pyridin-3-yl}-N-methyl-benzamide]
6.00 to 6.30 |  | CCc1ccccc1-c1cc(C#N)c(N2CCN(C(=O)CCOC)[C@H](C)C2)nc1C1CC1 [Compound 334, (R)-6-cyclopropyl-5-(2-ethyl-phenyl)-2-[4-(3-methoxy-propionyl)-3-methyl-piperazin-1-yl]-nicotinonitrile]
 | 5.30 to 6.00 | COCCC(=O)N1CCN(c2nc(C(C)C)c(-c3cccc(C)c3)cc2C#N)C[C@H]1C [Compound 193, (R)-6-isopropyl-2-(4-(3-methoxypropanoyl)-3-methylpiperazin-1-yl)-5-m-tolylnicotinonitrile]
> 6.30 |  | COCCC(=O)N1CCN(c2nc(C3CC3)c(N(C)c3ccnc(Cl)c3)cc2C#N)C[C@H]1C [Compound 699, (R)-5-((2-chloropyridin-4-yl)(methyl)amino)-6-cyclopropyl-2-(4-(3-methoxypropanoyl)-3-methylpiperazin-1-yl)nicotinonitrile]
6.00 to 6.30 |  | COCCC(=O)N1CCN(c2nc(C3CC3)c(OC(C)c3ccc(Cl)cc3)cc2C#N)C[C@H]1C (stereo partly drawn) [Compound 311, 5-(1-(4-chlorophenyl)ethoxy)-6-cyclopropyl-2-((R)-4-(3-methoxypropanoyl)-3-methylpiperazin-1-yl)nicotinonitrile]
 | ≥ 6.00 | COCCC(=O)N1CCN(c2nc(C3CC3)c(-c3ccc(C(F)(F)F)cc3)cc2C#N)C[C@H]1C [Compound 226, (R)-6-cyclopropyl-2-(4-(3-methoxypropanoyl)-3-methylpiperazin-1-yl)-5-(4-(trifluoromethyl)phenyl)nicotinonitrile]

The remaining lines, values behind:

SMILES | pIC50 [1] | pIC50 [2]
CC(C)c1cc(-c2cccc(O)c2)c(C#N)c(N2CCN(C(=O)c3ccoc3)[C@H](C)C2)n1 [Compound 152, (R)-2-(4-(furan-3-carbonyl)-3-methylpiperazin-1-yl)-4-(3-hydroxyphenyl)-6-isopropylnicotinonitrile] |  | 5.30 to 6.00
CC(C)c1cc(-c2ccccc2O)c(C#N)c(N2CCN(C(=O)c3ccoc3)[C@H](C)C2)n1 [Compound 157, (R)-2-(4-(furan-3-carbonyl)-3-methylpiperazin-1-yl)-4-(2-hydroxyphenyl)-6-isopropylnicotinonitrile] |  | 4.82 to 5.30
C=Cc1cc(-c2c(C3CC3)nc(N3CCN(C(=O)CCC4CCC4)[C@H](C4CC4)C3)c(C#N)c2C)ccn1 [Compound 826, (R)-6-(4-(3-cyclobutylpropanoyl)-3-cyclopropylpiperazin-1-yl)-2-cyclopropyl-4-methyl-2′-vinyl-3,4′-bipyridine-5-carbonitrile] | > 6.30 | 
CC(C)c1cc(-c2cccc(F)c2)c(C#N)c(N2CCN(C(=O)c3ccoc3)CC2)n1 [Compound 115, 4-(3-fluorophenyl)-2-(4-(furan-3-carbonyl)piperazin-1-yl)-6-isopropylnicotinonitrile] |  | 5.30 to 6.00
CC[C@@H]1CN(c2nc(C(C)C)c(-c3ccccc3)cc2C#N)CCN1C(=O)c1ccoc1 [Compound 171, (R)-2-(3-ethyl-4-(furan-3-carbonyl)piperazin-1-yl)-6-isopropyl-5-phenylnicotinonitrile] |  | 5.30 to 6.00
CC(C)c1nc(N2CCN(C(=O)Cc3cccs3)[C@H](C)C2)c(C#N)cc1-c1ccccc1 [Compound 165, (R)-6-isopropyl-2-(3-methyl-4-(2-(thiophen-2-yl)acetyl)piperazin-1-yl)-5-phenylnicotinonitrile] |  | 5.30 to 6.00
COCCC(=O)N1CCN(c2nc(C(C)C)c(-c3ccoc3)cc2C#N)C[C@H]1C [Compound 205, (R)-5-(furan-3-yl)-6-isopropyl-2-(4-(3-methoxypropanoyl)-3-methylpiperazin-1-yl)nicotinonitrile] |  | 5.30 to 6.00
CC1CN(c2nc(C3CC3)c(-c3cccc4cnccc34)cc2C#N)CC(F)CN1C(=O)C1CC1 (stereo not shown) [Compound 484, 2-(4-(cyclopropanecarbonyl)-6-fluoro-3-methyl-1,4-diazepan-1-yl)-6-cyclopropyl-5-(isoquinolin-5-yl)nicotinonitrile] | 6.00 to 6.30 | 
COCCC(=O)N1CCN(c2nc(C(C)C)c(-c3cncc4ccccc34)cc2C#N)C[C@H]1C [Compound 234, (R)-6-isopropyl-5-(isoquinolin-4-yl)-2-(4-(3-methoxypropanoyl)-3-methylpiperazin-1-yl)nicotinonitrile] |  | ≥ 6.00
COc1ccccc1-c1cc(C(C)C)nc(N2CCN(C(=O)Cc3ccccc3)C(C)C2)c1C#N (stereo not shown) [Compound 149] |  | 5.30 to 6.00
CC(C)c1cc(-c2ccccc2)nc(N2CCN(C(=O)c3ccco3)C(C)C2)c1C#N (stereo not shown) [Compound 108, 2-(4-(furan-2-carbonyl)-3-methylpiperazin-1-yl)-4-isopropyl-6-phenylnicotinonitrile] |  | 4.82 to 5.30
CCC(=O)Nc1cccc(-c2cc(C#N)c(N3CCN(C(=O)C4CC4)[C@H](C4CC4)C3)nc2C2CC2)c1 [Compound 450, (R)—N-(3-(5-cyano-6-(4-(cyclopropanecarbonyl)-3-cyclopropylpiperazin-1-yl)-2-cyclopropylpyridin-3-yl)phenyl)propionamide] | 6.00 to 6.30 | 
C=Cc1ccnc(Nc2cc(C#N)c(N3CCN(C(=O)/C=C/CCO)[C@H](C4CC4)C3)nc2C2CC2)c1 [Compound 798, (R,E)-6-cyclopropyl-2-(3-cyclopropyl-4-(5-hydroxypent-2-enoyl)piperazin-1-yl)-5-((4-vinylpyridin-2-yl)amino)nicotinonitrile] | > 6.30 | 
CC(C)c1cc(-c2cccc(F)c2)c(C#N)c(N2CCN(C(=O)c3ccco3)CC2)n1 [Compound 114, 4-(3-fluorophenyl)-2-(4-(furan-2-carbonyl)piperazin-1-yl)-6-isopropylnicotinonitrile] |  | 5.30 to 6.00
N#Cc1cc(-c2cc(Cl)nc3ccccc23)c(C2CC2)nc1N1CCN(C(=O)C2CC2)[C@H](C2CC2)C1 [Compound 543, (R)-5-(2-chloroquinolin-4-yl)-2-(4-(cyclopropanecarbonyl)-3-cyclopropylpiperazin-1-yl)-6-cyclopropylnicotinonitrile] | 6.00 to 6.30 | 
CC(C)c1cc(-c2ccccc2)c(C#N)c(N2CCN(C(=O)Cc3ccccc3)[C@H](C)C2)n1 [Compound 131, (R)-6-isopropyl-2-(3-methyl-4-(2-phenylacetyl)piperazin-1-yl)-4-phenylnicotinonitrile] |  | 5.30 to 6.00
C=Cc1ccnc(Nc2cc(C#N)c(N3CCN(C(=O)CN4CCCC4=O)[C@H](C4CC4)C3)nc2C2CC2)c1 [Compound 816, (R)-6-cyclopropyl-2-(3-cyclopropyl-4-(2-(2-oxopyrrolidin-1-yl)acetyl)piperazin-1-yl)-5-((4-vinylpyridin-2-yl)amino)nicotinonitrile] | 6.00 to 6.30 | 
C=Cc1ccnc(Nc2cc(C#N)c(N3CCN(C(=O)C[C@H]4CCCO4)[C@H](C4CC4)C3)nc2C2CC2)c1 [Compound 828] | > 6.30 | 
C=Cc1cc(-c2cc(C#N)c(N3CCN(C(=O)CN4CCCC4=O)[C@H](C4CC4)C3)nc2C2CC2)ccn1 [Compound 814, (R)-2-cyclopropyl-6-(3-cyclopropyl-4-(2-(2-oxopyrrolidin-1-yl)acetyl)piperazin-1-yl)-2′-vinyl-3,4′-bipyridine-5-carbonitrile] | 6.00 to 6.30 | 
COc1ccccc1-c1cc(C(C)C)nc(N2CCN(C(=O)c3c[nH]c4ccccc34)CC2)c1C#N [Compound 106] |  | 4.82 to 5.30
COCCC(=O)N1CCN(c2nc(C(C)C)c(-c3ccc4c(c3)OCCO4)cc2C#N)C[C@H]1C [Compound 233, (R)-5-(2,3-dihydrobenzo[b][1,4]dioxin-6-yl)-6-isopropyl-2-(4-(3-methoxypropanoyl)-3-methylpiperazin-1-yl)nicotinonitrile] |  | 5.30 to 6.00
C[C@@H]1CN(c2nc(C3CC3)c(-c3cccc4c3CN(C)C4=O)cc2C#N)CCN1C(=O)C1CC1 [Compound 461, (R)-2-(4-(cyclopropanecarbonyl)-3-methylpiperazin-1-yl)-6-cyclopropyl-5-(2-methyl-1-oxoisoindolin-4-yl)nicotinonitrile] | 6.00 to 6.30 | 
